For 13 compounds, TGI and GI50 results are on record in PubChem BioAssay (NCI).

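All cell lines were grown in 96-well plates and treated with compound for 48 hours. GI50 marks 50% less growth. TGI is the concentration that stops growth completely.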

Common to all, as to test: growth of human tumour cells (NCI), 48 h
Assay [1] has as its system SR leukemia.
The subject of assay [2] is SF-539 CNS.
Assay [3] relates to HS 578T breast.
In assay [4] the test system is SNB-75 CNS.
Assay [5] deals with SNB-19 CNS.
Assay [6] has as its system MDA-MB-231 breast.
Assay [7] concerns T-47D breast.
For assay [8], the system named is M14 melanoma.
The test system of assay [9] is NCI/ADR-RES ovarian.
Assay [10] relates to LOX IMVI melanoma.

For the compound `CCCc1ccc(OCC(=O)N/N=C/c2c(-c3ccccc3)[nH]c3ccccc23)cc1`, the TGI is 23.1 µM in assay [1]; 42.5 µM in assay [2]; over 100 µM in assay [3]; 58.6 µM in [4]; over 100 µM in assay [5]; 28.9 µM in [6]. Moreover, the TGI in [7] was found to be 52.4 µM; in assay [8], 28.2 µM; in assay [9], 42.5 µM; in assay [10] it was 21.6 µM.
With `CS(=O)(=O)OCc1c(O)c2c(c(O)c1COS(C)(=O)=O)C(=O)C=CC2=O`, the TGI in [1], in assay [2], in [4] and in [8] was over 100 µM each time.
`C=C1C(=O)OC2/C=C(\C)CC(O)/C=C(/CO)CC(OC(=O)/C(C)=C/C)C12` (configuration not stated): the TGI in assay [2] came out at 115 µM; in [4], 417 µM; in assay [5] it was 353 µM; in assay [9], 538 µM.
Consider `C=CCC1=CC2(OC)C(=O)C(OC)(OC)C1C1C(OC)(OC)C(=O)C(OC)=CC12CC=C` (configuration not stated), for which the TGI in assay [2], in [3], in [4], in assay [5], in assay [6] and in [7] was over 100 µM in each case. For the same compound, the TGI in assay [8], in assay [9] and in assay [10] was over 100 µM in each case.
For `C[C@]12CC[C@H](O)CC1=CC[C@@H]1[C@@H]2CC[C@]2(C)C(=O)CC[C@@H]12`, the TGI in assay [1] was over 100 µM; in [2], over 100 µM; in assay [3], 97.9 µM; in assay [4], over 100 µM; in assay [5], over 100 µM; in [7], over 100 µM. Moreover, the TGI in [8], in [9] and in [10] was over 100 µM each time.
For the compound `CC(C)Cc1cccc(C(C)C)c1NC(=O)CCC(=O)N/N=C1\C(=N/NC(=O)CCC(=O)Nc2c(C(C)C)cccc2C(C)C)C(c2ccc3c(c2)OCO3)Oc2ccccc21` (configuration not stated), the TGI in [1], in assay [2], in [4], in assay [5], in [8] and in assay [10] was over 100 µM throughout.
For the compound `COc1ccc(-n2cc(-c3ccc(OC)c(OC)c3)nc2SCc2ccccc2)cc1Cl`, the GI50 in [1] is 16 µM; in assay [2] it was 24.5 µM; in [3] it was 25.3 µM; in [4], 27.4 µM; in [5], 32.5 µM; in assay [6], 26.9 µM. The GI50 in assay [7] is 9.45 µM; in assay [8], 26 µM; in assay [9] it was 42.7 µM; in assay [10], 34.7 µM. In addition, the TGI is 51.1 µM in assay [1]; 79.5 µM in [2]; over 100 µM in assay [3]; over 100 µM in assay [4]; over 100 µM in assay [5]; over 100 µM in assay [6]. The TGI in [7], in [8], in assay [9] and in assay [10] was over 100 µM in each case.
With `FC(F)(F)C1=NC(=NNc2nnc(-c3ccccc3)c(-c3ccccc3)n2)N=C(C(F)(F)F)C1`, the TGI in assay [2], in [4], in assay [5], in assay [9] and in [10] was over 100 µM each time.
As for `C[C@H](O)C(=O)SC[C@H](NC(=O)CC[C@@H](N)C(=O)O)C(=O)NCC(=O)O`, the TGI in assay [1], in assay [4], in assay [8] and in assay [10] was over 100 µM in each case.
Take `Oc1ccc2ccccc2c1Cc1c(O)ccc2ccccc12`: the TGI in assay [2] came to 42.2 µM; in assay [3], 34.4 µM; in assay [4], 42.2 µM; in assay [5], 36.7 µM; in assay [6] it was 40.9 µM; in [7], 56.4 µM. Also, the TGI in [8] worked out at 34.9 µM; in assay [9], 37.4 µM; in [10] it was 38.7 µM.
As to `C[n+]1c(-c2ccc(/C=N\NC(=O)c3ccc(C(=O)N/N=C/c4ccc(-c5cn6ccsc6[n+]5C)cc4)cc3)cc2)cn2ccsc21`, the TGI in [1] was 85.6 µM; in assay [2], 56.1 µM; in assay [3], 54.7 µM; in [4], 46.7 µM; in assay [5] it was 51.9 µM; in [6], 42.1 µM. Further, the figures for the TGI in assay [8] and in assay [9] were 44.9 µM and 41.1 µM, respectively.
Consider `O=c1cc(-c2nc3ccccc3[nH]2)[nH]c2nc(-c3nc4ccccc4[nH]3)cc(-c3ccc(Cl)cc3)c12`, for which the TGI in [1] is 46.6 µM; in assay [2], 31.8 µM; in [3], over 100 µM; in [5] it was over 100 µM; in assay [6], 35.7 µM; in [7], 83.5 µM. The TGI in assay [8] was found to be 62.5 µM; in assay [9], 91.3 µM; in assay [10] it was 31.8 µM.
Take `CCOc1cc(NC(C)=O)ccc1C(=O)NN1C(=O)CSC1c1ccc(O)c(OC)c1` (configuration not stated): the TGI in assay [1], in [2], in [3], in [4], in [5] and in [6] was over 100 µM each time. Further, the TGI in assay [7], in assay [8], in assay [9] and in assay [10] was over 100 µM throughout.
